Experimental data taken from PubChem BioAssay (NCI).
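How tested: cells in 96-well plates exposed to compound for 48 hours at five concentrations. GI50 is the concentration that inhibits growth by half. TGI is the concentration that stops growth completely.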

Columns and labels:
Test in all cases: NCI-60 cell line screen, 48 h
[1] = system: MALME-3M melanoma
[2] = system: MDA-MB-435
[3] = system: UACC-62 melanoma
[4] = system: SF-539 CNS
[5] = system: UO-31 renal
[6] = system: LOX IMVI melanoma
[7] = system: ACHN renal
[8] = system: SK-MEL-5 melanoma
[9] = system: HOP-92 NSCLC
[10] = system: A498 renal
[11] = system: BT-549 breast

Structure (SMILES) | GI50 [1] [µM] | TGI [1] [µM] | GI50 [2] [µM] | TGI [2] [µM] | GI50 [3] [µM] | TGI [3] [µM] | GI50 [4] [µM] | TGI [4] [µM] | GI50 [5] [µM] | TGI [5] [µM] | GI50 [6] [µM] | TGI [6] [µM] | GI50 [7] [µM] | TGI [7] [µM] | GI50 [8] [µM] | TGI [8] [µM] | GI50 [9] [µM] | TGI [9] [µM] | TGI [10] [µM] | TGI [11] [µM]
CN1CCN(Cn2nc(-c3cc(F)c(Cl)cc3Cl)oc2=S)CC1 | 26.4 | 74.1 | 40.5 | > 100 | 21.2 | 55.2 | 29.9 | 71.5 | 74.1 | > 100 | 20.3 | 45.6 | 34.6 | > 100 | 17.4 | 33.7 | > 100 | > 100 | – | –
COc1cccc2c1C(=O)c1c(O)c3c(c(O)c1C2=O)CC(O)(C(C)=O)CC3O (centres undefined) | – | 12.7 | – | – | – | 14.4 | – | 21.3 | – | 28.8 | – | 8.7 | – | – | – | 6.98 | – | 28.9 | 17.2 | –
CN1C(=O)[C@@H]2[C@@H]3c4ccccc4N[C@@H]3c3[nH]c4ccccc4c3[C@@H]2C1=O | – | – | – | 64.7 | – | 32.4 | – | 39.3 | – | 43.9 | – | 46.6 | – | 49.9 | – | 25 | – | 59.7 | 65.3 | 53.6
O=c1[nH]c(-c2ccc(Cl)cc2)cc2ccsc12 | – | 5.8 | – | – | – | > 100 | – | – | – | > 100 | – | > 100 | – | > 100 | – | > 100 | – | 77.4 | – | > 100
